Consider eight molecules from PubChem BioAssay (NCI).

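Five concentrations, 48 hours, 96-well plates. GI50: concentration for 50% inhibition of growth. TGI: concentration producing complete growth inhibition.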

Test systems include M14 melanoma; MALME-3M melanoma; OVCAR-3 ovarian; MOLT-4 leukemia; IGROV1 ovarian; ACHN renal; HT29 colon; U251 CNS; CCRF-CEM leukemia; EKVX NSCLC.
Common to all, as to experiment: NCI-60 cell line screen, 48 h

As to `N#C/C(=C1C=C/C(=N/O)C(Br)=C/1)c1ccccc1`, the GI50 in the test with M14 melanoma was 3.79 µM; in the test with MALME-3M melanoma, 4.72 µM; in the test on OVCAR-3 ovarian, 3.48 µM; with MOLT-4 leukemia it was 2.93 µM; in the test on IGROV1 ovarian it was 2.16 µM; in the test on ACHN renal, 1.89 µM. The GI50 was 3.3 µM in the test with HT29 colon, 2.44 µM in the test with U251 CNS and 0.661 µM in the test on CCRF-CEM leukemia. For the same molecule, the TGI worked out at 20 µM with M14 melanoma; 22.6 µM in the test with MALME-3M melanoma; 11.4 µM in the test with OVCAR-3 ovarian; 11.5 µM in the test on MOLT-4 leukemia; 12.2 µM with IGROV1 ovarian; 14.7 µM with ACHN renal. For the same molecule, the TGI was determined as 10.2 µM with HT29 colon, 8.01 µM in the test with U251 CNS and 8.91 µM with CCRF-CEM leukemia.

Consider `COc1ccc2cc1Oc1ccc(cc1)CC1c3cc(c(OC)cc3CCN1C)Oc1c3c(cc4c1C(C2)N(C)CC4)OCO3` (stereo not drawn), for which the TGI in the test with M14 melanoma worked out at 3.52 µM; in the test on OVCAR-3 ovarian it was 30 µM; with MOLT-4 leukemia, 21.5 µM; with IGROV1 ovarian, 28.8 µM; in the test with ACHN renal it was 13.9 µM; in the test on HT29 colon, 8.25 µM. Besides, the TGI was determined as 29.8 µM in the test on EKVX NSCLC, 17.3 µM with U251 CNS and 31.7 µM in the test with CCRF-CEM leukemia.

Turning to `COc1ccc2[nH]c3c(C)c4c(c(C)c3c2c1)CN(C)CC4`, the TGI in the test on M14 melanoma came to 30.5 µM; in the test on MALME-3M melanoma it was 35 µM; with OVCAR-3 ovarian, 30.3 µM; in the test on MOLT-4 leukemia it was 74.1 µM; in the test with IGROV1 ovarian it was 35.9 µM; with ACHN renal it was 35 µM. The TGI with HT29 colon was 20.2 µM; in the test on U251 CNS it was 32 µM; in the test on CCRF-CEM leukemia, > 100 µM.

Consider `Cc1ccc(-c2c3c([nH]c(=O)c2C#N)-c2cc(F)ccc2OC3)cc1`, for which the GI50 in the test with M14 melanoma was 29.9 µM; with OVCAR-3 ovarian, 25.4 µM; with MOLT-4 leukemia, 97.5 µM; with IGROV1 ovarian, 52.3 µM; in the test on ACHN renal it was > 100 µM; with HT29 colon, > 100 µM. The values for the GI50 with EKVX NSCLC, with U251 CNS and with CCRF-CEM leukemia were 95.5 µM, 46.2 µM and 1.19 µM, respectively. Besides, the TGI in the test on M14 melanoma was > 100 µM; with OVCAR-3 ovarian, 81.9 µM; in the test with MOLT-4 leukemia, > 100 µM; in the test with IGROV1 ovarian, > 100 µM; in the test with ACHN renal, > 100 µM; in the test on HT29 colon it was > 100 µM. The TGI was > 100 µM with EKVX NSCLC, > 100 µM with U251 CNS and 7.25 µM in the test on CCRF-CEM leukemia.

With `O=C(O)Cn1ccc(=O)c2ccc([N+](=O)[O-])cc21`, the TGI in the test with M14 melanoma, with MALME-3M melanoma, with OVCAR-3 ovarian, with MOLT-4 leukemia, in the test on IGROV1 ovarian and with ACHN renal was > 100 µM throughout. The TGI with HT29 colon, in the test with U251 CNS and with CCRF-CEM leukemia was > 100 µM each time.

In the case of `Cc1ccc2c(c1)C(=O)/C(=C/c1ncc([N+](=O)[O-])n1C)O2`, the GI50 with M14 melanoma is 1.11 µM; in the test with MALME-3M melanoma it was 1.8 µM; in the test on OVCAR-3 ovarian, 2.53 µM; in the test on MOLT-4 leukemia it was 0.5 µM; in the test on IGROV1 ovarian, 1.96 µM; in the test on ACHN renal, 0.489 µM. The GI50 with HT29 colon is 0.491 µM; in the test on U251 CNS, 1.93 µM; in the test with CCRF-CEM leukemia it was 0.324 µM. The TGI with M14 melanoma is 4.9 µM; in the test with MALME-3M melanoma, 4.37 µM; with OVCAR-3 ovarian, 6.55 µM; in the test with MOLT-4 leukemia, 7.43 µM; in the test on IGROV1 ovarian it was > 23.7 µM; with ACHN renal it was 9.11 µM. Moreover, the results for the TGI in the test with HT29 colon, with U251 CNS and in the test with CCRF-CEM leukemia were 3.36 µM, 5.32 µM and 2.95 µM, respectively.

Turning to `CCNCCNc1cc(-c2ccc(C(=O)OC)cc2)c(C#N)c2nc3ccccc3n12`, the GI50 in the test with M14 melanoma was 1.58 µM; in the test with MALME-3M melanoma, 1.95 µM; in the test with OVCAR-3 ovarian, 1.35 µM; in the test with IGROV1 ovarian, 2.38 µM; with ACHN renal it was 1.66 µM; in the test on HT29 colon, 1.6 µM. The GI50 was 4.07 µM in the test on EKVX NSCLC, 1.53 µM with U251 CNS and 0.505 µM with CCRF-CEM leukemia. In addition, the TGI in the test with M14 melanoma is 3.23 µM; with MALME-3M melanoma it was 3.69 µM; with OVCAR-3 ovarian it was 2.88 µM; with IGROV1 ovarian, > 100 µM; in the test on ACHN renal it was 3.3 µM; in the test with HT29 colon, 4.47 µM. In addition, the TGI with EKVX NSCLC is > 100 µM; in the test with U251 CNS, 3.11 µM; in the test on CCRF-CEM leukemia, 3.55 µM.

Take `Cc1ccc(S(=O)(=O)C(CC(=O)N2CCCC2)C(=O)c2ccccc2)cc1` (stereo not drawn): the TGI in the test with M14 melanoma, with MALME-3M melanoma, in the test with OVCAR-3 ovarian, in the test with MOLT-4 leukemia, in the test with IGROV1 ovarian and in the test on ACHN renal was > 100 µM each time. Further, the TGI in the test with HT29 colon is > 100 µM; with U251 CNS it was > 100 µM; with CCRF-CEM leukemia, 62.5 µM.
